According to the supplement of paper PMC4858399:

Experiments:
Settings in all cases: exposure time 48 h
[1] = system: Caenorhabditis elegans N2; experiment: AC50 for larval growth inhibition (Hill fit); higher = less potent
In short: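 Synchronised C. elegans N2 L1 larvae (50 per well, 96-well plates) were grown for 48 h at 20°C in K-medium with killed OP50, 1% DMSO and 0.5–200 µM chemical. The COPAS Biosort measured each worm's size as extinction, which was log-transformed and averaged per well. AC50 came from a constrained Hill fit by weighted genetic-algorithm regression on wells with at least 10 worms. Out-of-range values are censored.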

[2] = system: Caenorhabditis elegans N2; experiment: lowest effective concentration for larval growth inhibition (size below effect threshold); higher = less potent
In short: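 L1 larvae of C. elegans N2 (50 per 96-well) were grown in K-medium with killed bacteria and 1% DMSO, with the chemical at 0.5, 1, 5, 10, 50, 100 or 200 µM, for 48 h at 20°C. Per-worm extinction from the Biosort stood for size and was log-transformed into well means. For each chemical, the lowest effective concentration is the first dose where plate-adjusted mean size falls under the threshold and stays under it at the higher doses, using a threshold of 5.665.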

[3] = system: Caenorhabditis elegans N2; experiment: mean nematode size ln(EXT) after 48 h, plate-adjusted (DMSO control set to 6) (ln(EXT), control-adjusted); higher = larger nematodes / less growth inhibition
In short: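 Each treatment used 4–6 wells of 50 synchronised C. elegans N2 L1 larvae, kept for 48 h at 20°C in K-medium with killed OP50, 1% DMSO and 0.5–200 µM chemical. Debris was excluded by a growth model after the Biosort measured per-worm extinction. Mean size per well came from natural-logged values and was plate-adjusted. That adjustment subtracted the vehicle control mean and then added 6.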

Structure (SMILES) | AC50 for larval growth inhibition [1] | lowest effective concentration [2] | mean nematode size ln(EXT) (ln) ([3]; 0.5 µM) | mean nematode size ln(EXT) (ln) ([3]; 1 µM) | mean nematode size ln(EXT) (ln) ([3]; 5 µM) | mean nematode size ln(EXT) (ln) ([3]; 10 µM) | mean nematode size ln(EXT) (ln) ([3]; 50 µM) | mean nematode size ln(EXT) (ln) ([3]; 100 µM) | mean nematode size ln(EXT) (ln) ([3]; 200 µM)
Fc1ccc(Oc2ccnc3cc(Cl)cc(Cl)c23)cc1 [Quinoxyfen] | 1.53 µM | ≤ 0.5 µM | 4.9 | 5.31 | 4.26 | 4.2 | 3.97 | 4 | 3.68
CCN1CCC2(CC1)COc1cc3c(cc12)N(C(=O)c1ccc(-c2ccc(-c4nnc(C)o4)cc2C)cc1)CC3 | 52.6 µM | 50 µM | 5.74 | 5.82 | 5.74 | 5.84 | 5.56 | 4.06 | 4.5
C[C@]12CCC(=O)C=C1CC[C@@H]1[C@@H]2CC[C@]2(C)C(=O)CC[C@@H]12 [Androstenedione] | > 200 µM | 200 µM | 5.85 | 5.91 | 5.86 | 5.99 | 5.89 | 5.84 | 5.66
CN1CCN(c2ccccc2/C=C2\SCCN(c3ccc(Cl)c(Cl)c3)C2=O)CC1 [Elzasonan] | 62.7 µM | 10 µM | 5.89 | 5.8 | 5.84 | 5.58 | 4.76 | 4.27 | 3.67
C[Si](Cn1cncn1)(c1ccc(F)cc1)c1ccc(F)cc1 [Flusilazole] | 43.2 µM | 5 µM | 5.73 | 5.67 | 5.55 | 5.53 | 4.57 | 3.63 | 3.47
CC(C)NC(=O)N1CC(=O)N(c2cc(Cl)cc(Cl)c2)C1=O [Iprodione] | > 200 µM | 200 µM | 5.99 | 5.95 | 5.85 | 6.06 | 5.87 | 5.8 | 5.4
ClC1=C(Cl)[C@]2(Cl)[C@@H]3[C@@H](Cl)[C@H]4O[C@H]4[C@@H]3[C@@]1(Cl)C2(Cl)Cl (single isomer, unassigned; isomer b) [Heptachlor epoxide, isomer B] | 7.71 µM | 5 µM | 5.72 | 5.69 | 5.48 | 5.44 | 5.2 | 5.14 | 5.11
Clc1cccc(C(Cl)(Cl)Cl)n1 [Nitrapyrin] | 108 µM | 100 µM | 5.36 | 5.48 | 5.3 | 5.47 | 5.92 | 5.54 | 4.05
CC1=C2C[C@H]3[C@@H](CC=C4C[C@@H](O)CC[C@@]43C)[C@@H]2CC[C@]12O[C@@H]1C[C@H](C)CN[C@H]1[C@H]2C [Cyclopamine] | > 200 µM | 200 µM | 5.89 | 5.89 | 5.9 | 5.85 | 5.9 | 5.8 | 5.39
CC(COc1ccc(Oc2ccccc2)cc1)Oc1ccccn1 (centres undefined) [Pyriproxyfen] | 1.37 µM | ≤ 0.5 µM | 5.55 | 5.44 | 5.14 | 4.87 | 4.84 | 4.7 | 4.81
CCN(Cc1c(F)cccc1Cl)c1c([N+](=O)[O-])cc(C(F)(F)F)cc1[N+](=O)[O-] [Flumetralin] | 180 µM | 200 µM | 6.16 | 6.01 | 6 | 6.02 | 6.1 | 6.11 | 3.65
Oc1ccc(Cl)cc1Cc1ccccc1 [Clorophene] | 92 µM | 50 µM | 5.89 | 5.87 | 5.83 | 5.73 | 5.15 | 4.62 | 3.79
O=[N+]([O-])/N=C1\NCCN1Cc1ccc(Cl)nc1 [Imidacloprid] | 111 µM | 100 µM | 5.78 | 6.02 | 6.07 | 6.08 | 5.96 | 5.54 | 4.86
CC(=O)CC(c1ccccc1)c1c(O)c2ccccc2oc1=O (centres undefined) [Warfarin] | > 200 µM | 200 µM | 5.8 | 5.94 | 5.97 | 5.89 | 5.91 | 5.81 | 5.59
O=c1c(-c2ccc(O)cc2)coc2cc(O)cc(O)c12 [Genistein] | > 200 µM | 200 µM | 5.88 | 5.89 | 5.92 | 5.85 | 5.89 | 5.89 | 5.53
CCCCCOC(=O)COc1cc(N2C(=O)C3=C(CCCC3)C2=O)c(F)cc1Cl [Flumiclorac-pentyl] | > 200 µM | 100 µM | 5.98 | 6.04 | 6.02 | 5.91 | 5.69 | 5.6 | 4.54
CCOc1ccc(C(C)(C)COCc2cccc(Oc3ccccc3)c2)cc1 [Etofenprox] | 52.2 µM | 100 µM | 5.87 | 5.88 | 5.91 | 5.71 | 5.81 | 5.39 | 5.47
Nc1ccc(N=Nc2ccccc2)cc1 [4-Aminoazobenzene] | 31.4 µM | 5 µM | 5.63 | 5.75 | 5.62 | 5.49 | 4.06 | 3.92 | 3.23
COc1ccc(S(=O)(=O)N2C(=O)[C@@](c3ccccc3OC)(N3C[C@H](O)C[C@H]3C(=O)N(C)C)c3cc(Cl)ccc32)c(OC)c1 [Nelivaptan] | > 200 µM | 100 µM | 5.95 | 5.76 | 5.72 | 5.83 | 5.7 | 5.48 | 5.44
COP(=S)(OC)Oc1ccc(SC)c(C)c1 [Fenthion] | 34.4 µM | 1 µM | 5.69 | 5.64 | 5.43 | 5.36 | 5.09 | 5.11 | 4.92

Structure (SMILES) | AC50 for larval growth inhibition [1] | lowest effective concentration [2] | mean nematode size ln(EXT) (ln) ([3]; 0.5 µM) | mean nematode size ln(EXT) (ln) ([3]; 1 µM) | mean nematode size ln(EXT) (ln) ([3]; 5 µM) | mean nematode size ln(EXT) (ln) ([3]; 10 µM) | mean nematode size ln(EXT) (ln) ([3]; 50 µM) | mean nematode size ln(EXT) (ln) ([3]; 100 µM) | mean nematode size ln(EXT) (ln) ([3]; 200 µM)
Oc1ccc(C(c2ccc(O)cc2)C(Cl)(Cl)Cl)cc1 [2,2-Bis(4-hydroxyphenyl)-1,1,1-trichloroethane (HPTE)] | 66.9 µM | 50 µM | 6.16 | 6.15 | 6.1 | 6.01 | 5.25 | 4.61 | 4.12
O=C(O)C(F)(F)C(F)(F)C(F)(F)C(F)(F)C(F)(F)C(F)(F)C(F)(F)C(F)(F)C(F)(F)C(F)(F)F [Perfluoroundecanoic acid] | 4.14 µM | 5 µM | 5.8 | 5.77 | 4.55 | 3.95 | 3.63 | 3.64 | 3.2
CC(C)CCCCCCOC(=O)C1CCCCC1C(=O)OCCCCCCC(C)C (centres undefined) | > 200 µM | 200 µM | 5.92 | 5.97 | 5.87 | 5.9 | 5.87 | 5.84 | 5.66
CC[C@H](C)[C@H]1O[C@]2(C=C[C@@H]1C)C[C@@H]1C[C@@H](C/C=C(\C)[C@@H](O[C@H]3C[C@H](OC)[C@@H](O[C@H]4C[C@H](OC)[C@@H](O)[C@H](C)O4)[C@H](C)O3)[C@@H](C)/C=C/C=C3\CO[C@@H]4[C@H](O)C(C)=C[C@@H](C(=O)O1)[C@]34O)O2.CO[C@H]1C[C@H](O[C@H]2[C@H](C)O[C@@H](O[C@@H]3/C(C)=C/C[C@@H]4C[C@@H](C[C@]5(C=C[C@H](C)[C@@H](C(C)C)O5)O4)OC(=O)[C@@H]4C=C(C)[C@@H](O)[C@H]5OC/C(=C\C=C\[C@@H]3C)[C@]54O)C[C@@H]2OC)O[C@@H](C)[C@@H]1O [Abamectin] | < 0.5 µM | ≤ 0.5 µM | 3.68 | 3.31 | 3.37 | 3.26 | 3.38 | 3.35 | 3.24
Clc1ccc(Cl)cc1 [1,4-Dichlorobenzene] | > 200 µM | 200 µM | 5.89 | 5.93 | 5.94 | 5.84 | 5.84 | 5.73 | 5.58
c1ccc2c(c1)oc1ccccc12 [Dibenzofuran] | 126 µM | 50 µM | 5.88 | 5.9 | 5.93 | 5.87 | 5.61 | 5.1 | 3.65
COC(=O)NC(=S)Nc1ccccc1NC(=S)NC(=O)OC [Thiophanate-methyl] | > 200 µM | 200 µM | 5.88 | 5.84 | 5.76 | 5.87 | 5.83 | 5.73 | 5.41
Oc1c(Cl)c(Cl)c(Cl)c(Cl)c1Cl [Pentachlorophenol] | 146 µM | 50 µM | 5.82 | 5.94 | 5.92 | 5.89 | 5.6 | 5.01 | 4.2
CCC(C)c1cc([N+](=O)[O-])cc([N+](=O)[O-])c1O (centres undefined) [Dinoseb] | > 200 µM | 100 µM | 6.02 | 5.96 | 5.94 | 5.91 | 5.82 | 5.56 | 5.04
Cc1ncc(CO)c(CO)c1O [Pyridoxine] | > 200 µM | 200 µM | 5.84 | 5.88 | 5.86 | 5.83 | 5.87 | 5.92 | 5.63
CCOP(=O)(NC(C)C)Oc1ccc(SC)c(C)c1 (centres undefined) [Fenamiphos] | 90.9 µM | ≤ 0.5 µM | 5.54 | 5.56 | 5.32 | 5.31 | 4.93 | 4.49 | 4.15
O=C1OC(c2ccc(O)cc2)(c2ccc(O)cc2)c2ccccc21 [Phenolphthalein] | > 200 µM | 200 µM | 5.87 | 5.86 | 5.87 | 5.87 | 5.78 | 5.84 | 5.55
CC1(C)CC(N=C=O)CC(C)(CN=C=O)C1 (mixture of isomers) [Isophorone diisocyanate, mixture of isomers] | > 200 µM | 100 µM | 5.94 | 5.89 | 5.97 | 5.71 | 5.76 | 5.37 | 4.55
OCCC(F)(F)C(F)(F)C(F)(F)C(F)(F)C(F)(F)C(F)(F)C(F)(F)C(F)(F)F [1,1,2,2-Tetrahydroperfluoro-1-decanol] | > 200 µM | 10 µM | 5.86 | 5.67 | 5.72 | 5.62 | 5.54 | 5.37 | 4.6
COP(=O)(OC)OC(Br)C(Cl)(Cl)Br (centres undefined) [Naled] | 95.8 µM | 5 µM | 5.83 | 5.69 | 5.51 | 5.53 | 4.87 | 4.66 | 3.88
C1=CCCC=CCCC=CCC1 [1,5,9-Cyclododecatriene] | > 200 µM | 200 µM | 5.89 | 5.9 | 5.9 | 5.83 | 5.92 | 5.86 | 5.34
CC[C@@H]1C[C@H](N(Cc2cc(C(F)(F)F)cc(C(F)(F)F)c2)C(C)=O)c2cc(C(F)(F)F)ccc2N1C(=O)OC(C)C | > 200 µM | 200 µM | 5.74 | 6.01 | 5.87 | 5.9 | 5.83 | 5.79 | 5.52
S=C([S-])NCCNC(=S)[S-].S=C([S-])NCCNC(=S)[S-].[Mn+2].[Zn+2] [Mancozeb] | > 200 µM | 200 µM | 5.79 | 5.84 | 5.84 | 5.85 | 5.83 | 5.7 | 5.39
CCOC(=O)CC(SP(=S)(OC)OC)C(=O)OCC (centres undefined) [Malathion] | > 200 µM | 100 µM | 5.93 | 6.01 | 5.79 | 5.98 | 5.8 | 5.59 | 5.28
CCCOc1sc(C(=O)N2CCC(c3cc(CN)ccc3F)CC2)c(C)c1Br | 9.86 µM | 5 µM | 5.68 | 5.67 | 5.54 | 4.86 | 3.73 | 3.92 | –
